What was measured:
[1] = test system: PPARgamma ligand-binding domain (Gal4-PPARgammaLBD); experiment: PPARgamma transactivation assay (Gal4-PPARgammaLBD, UASx4-TK luc reporter); format: cell-based
Source text: This is an example of a transactivation assay for determining PPAR gamma modulating activity.
The UASx4-TK-luc reporter construct (where UAS refers to “upstream activator sequence”) contains four Gal4-responsive elements. The plasmid Gal4-PPARgammaLBD encodes a Gal4-DBD-PPARgamma-LBD fusion protein (i.e. the DNA-binding domain, DBD, of Gal4 fused to the ligand-binding domain, LBD, of PPARgamma) capable of transactivating the UASx4-TK-luc reporter plasmid by binding to the UAS. The CMV-beta-galactosidase plasmid (where CMV is cytomegalovirus) is used for normalization of experimental values.
The cells were replated, typically in 24 well plates, so that at the time of transfection the cells are 50-70% confluent.
Briefly, per well in a 24 well plate, UASx4TKluc (0.2 microg) Gal4-PPARgammaLBD (or pM-hPPARgamma-LBD; 0.1 microg) and CMV-beta-galactosidase (0.05 microg) in 30 μL DMEM (free of serum and antibiotics) is mixed with 30 microL DMEM (free of serum and antibiotics) containing 1 microL metafectenein. The mixture is incubated at room temperature for 20 min to allow formation of nucleic acid-lipid complexes and then approximately 60 microL is added to each well containing the 50-60% confluent cells. […] Cells were harvested after 12-24 hours and luciferase and beta-galactosidase activities were measured according to standard protocols.
“−” means that testing was not performed.

3T3-L1 / MEFs = experiment: Adipocyte differentiation assay, induction, Oil Red O staining; format: cell-based, mouse; conditions: induction assay, Oil Red O
Description: This example describes an assay for determining adipocyte differention. Compounds are tested to see whether they induce adipocyte differentiation and also to see whether they inhibit adipocyte differention.
MEFs were grown in AmnioMax basal medium (Gibco) supplemented with 7.5% Amniomax supplement C-100 (Gibco), 7.5% Fetal Bovine Serum (FBS), 2 mM Glutamine, 62.5 μg/ml penicillin and 100 μg/ml Streptomycin (growth medium). At confluence, MEFs were induced to differentiation in growth medium with the addition of 1 microM dexamethasone (Sigma) 0.5 mM isobutylmethylxanthine (Sigma), 5 microg/ml insulin (Sigma) and 10 microM test compound dissolved in DMSO or DMSO alone. Medium was subsequently renewed every 48 hrs with growth media supplemented with 5 microg/ml Insulin and ligand or DMSO.
Briefly, to test compounds as inducers of adipocyte differentiation, 3T3-L1 are grown to confluence in DMEM with 10% Calf serum (CS), typically in 24 well dishes. At 2 days post confluence (day 0), cells are induced to differentiate with DMEM supplemented with 10% fetal bovine serum (FBS), 1 μM dexamethasone and the test compound ([…], 1 and 10 microM). BRL49653 (1.0 μM dissolved in 100% Me2SO) is used as a positive control. After 48 h, the cells are re-fed with DMEM containing 10% FBS supplemented with the test compound or the positive control. From day 4, cells are grown in DMEM with 10% FBS and are changed every second day until day 8. At day 8, cells are stained with Oil Red O as described below.
Cells cultured as described above are used for Oil Red staining. Dishes are washed in PBS and cells were fixed in 3.7% paraformaldehyde for 1 h and stained with oil red O as described in (Hansen et al 1999). Oil red O solution stock solution is prepared by dissolving 0.5 g of Oil Red O (Sigma) in 100 ml of isopropanol. Oil re O working solution is prepared by diluting a stock solution with water (6:4) followed by filtration.
Table II summarizes results obtained with different analogs of DPD (SN1), “0” representing similar results to DPD, “−1” representing even less adipocyte differentiation, “+1” representing more adipocyte differentiation (both relative to DPD) and “−” meaning not assayed.

human pre-adipocytes = experiment: Adipocyte differentiation assay using human pre-adipocytes; format: cell-based; conditions: similar to DMSO

PPAR gamma modulating activity, in words [1]: PPAR gamma agonist
Structure (SMILES): O=C(O)CC/C=C\C[C@@H]1CO[C@H](c2ccccc2Cl)O[C@@H]1c1ccccc1O (racemic) [SN1, 4-(Z)-6-(2-o-chlorophenyl-4-o-hydroxyphenyl-1,3-dioxan-cis-5-yl) hexenoic acid]
induction of adipocyte differentiation (red staining), in words (3T3-L1 / MEFs): very little red staining
red staining in human pre-adipocytes (human pre-adipocytes): very little red staining

Reference: patent US20140288110A1, “PPAR MODULATORS” (EVOLVA SA, priority 2006, published 2014)
